Assay results published in patent US20230063703A1, “DRUG AND FOOD FOR TREATING AND/OR PREVENTING ENTERITIS AND/OR HEPATITIS” (priority 2020, published 2023).
Where two headings read alike, the source gives them in different places.

Experiments:
[1] = system: DSS-induced colitis model mice; test: Enteritis-inhibiting effect of single species D-amino acids in DSS-induced colitis model mice; type: in vivo, mice (B6CL57); conditions: single D-amino acid in drinking water 3 weeks, then 2% DSS; 8th day; compared with water containing all five D-amino acids
Description: The DAI scores were assigned for the following: diarrhea symptom (normal: 0, soft feces: 1, mild diarrhea: 2, moderate diarrhea: 3, severe diarrhea: 4); bloody stool symptom (normal: 0, mild bloody stool: 1, moderate bloody stool: 2, severe bloody stool: 3, severe bloody stool with anal bleeding: 4); and body weight reduction (None: 0, 1% to 5%: 1, 5% to 10%: 2, 10% to 20%: 3, ÷20%: 4), and the total values were calculated (minimum 0 points, maximum 12 points), for each mouse.

[2] = Blood D-serine concentration in mice given drinking water containing D-serine; type: in vivo; conditions: free access to drinking water containing 1% D-serine
Text: The blood concentration of administered D-serine is preferably 5 nmol/mL or greater, more preferably 10 nmol/mL or greater and even more preferably 50 nmol/mL or greater. The D-serine blood concentration is also preferably 1 μmol/mL or lower, more preferably 0.5 μmol/mL or lower and even more preferably 0.1 μmol/mL or lower.

kidneys = conditions: cited from earlier work; for toxicity on the kidneys: rat, in vivo, ip; for amino acid excretion: after 2 hours

| Compound | DAI score [1] | body weight reduction suppressing effect [1] | other results |
| --- | --- | --- | --- |
| C[C@@H](N)C(=O)O [D-Ala, D-alanine] | equivalent to drinking water containing all five D-amino acids | equivalent to drinking water containing all five D-amino acids |  |
| N[C@H](CC(=O)O)C(=O)O [D-Asp, D-aspartic acid] | equivalent to drinking water containing all five D-amino acids | equivalent to drinking water containing all five D-amino acids |  |
| N[C@H](CCC(=O)O)C(=O)O [D-Glu, D-glutamic acid] | significantly inhibited enteritis more than the drinking water containing all five D-amino acids | significantly inhibited enteritis more than the drinking water containing all five D-amino acids |  |
| N[C@H](CO)C(=O)O [D-Ser, D-serine] | equivalent to drinking water containing all five D-amino acids | equivalent to drinking water containing all five D-amino acids | blood D-serine concentration [2]: 100 nmol/mL; toxicity on the kidneys (kidneys; 26 mg/kg): no toxicity; toxicity on the kidneys (kidneys; 267 mg/kg): toxicity of D-serine on the kidneys was exhibited; toxicity on the kidneys (kidneys; 800 mg/kg): toxicity of D-serine on the kidneys was exhibited; amino acid excretion (kidneys; rats, intraperitoneal, 26 mg/kg): no effect; amino acid excretion (kidneys; rats, intraperitoneal, 80 mg/kg): no effect; amino acid excretion (kidneys; rats, intraperitoneal, 267 mg/kg): significantly increased; amino acid excretion (kidneys; rats, intraperitoneal, 800 mg/kg): significantly increased; nephrotoxicity (kidneys; rats, intraperitoneal, doses such as 800 mg/kg, 400 mg/kg or 250 mg/kg): causes nephrotoxicity |
| N[C@H](Cc1c[nH]c2ccccc12)C(=O)O [D-Trp, D-tryptophan] | significantly inhibited enteritis more than the drinking water containing all five D-amino acids | significantly inhibited enteritis more than the drinking water containing all five D-amino acids |  |
